Measurements as given in the supplement of paper PMC10307832.

Assays:
Assay in all cases: relative viability (nuclei count vs DMSO), 5 days (fraction); higher = more cells survive
[1] = compound: C1=CC=C2C(=C1)N=C(S2)C(C#N)C3=NC(=NC=C3)NCCC4=CN=CC=C4 + Nc1nc2[nH]cc(CCc3ccc(C(=O)N[C@@H](CCC(=O)O)C(=O)O)cc3)c2c(=O)[nH]1 [Pemetrexed] (partner 0.2 µM)
Method in brief: (§1)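 Lung cancer cell lines were pin-tool dosed in 1536-well plates on the day after seeding, with either a lone drug or a fixed anchor-drug dose plus five library-drug doses (not always all listed) in √10 steps. Nuclei were counted on 4× images after 5 days. Relative viability is the ratio of treated-well to vehicle-well nuclei counts, with each value a median of duplicate plates.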

[2] = compound: C1=CC=C2C(=C1)N=C(S2)C(C#N)C3=NC(=NC=C3)NCCC4=CN=CC=C4 + Cc1nc(Nc2ncc(C(=O)Nc3c(C)cccc3Cl)s2)cc(N2CCN(CCO)CC2)n1 [Dasatinib] (partner 0.075 µM)
Method in brief: as §1

CUDC-101 + Palbociclib = compound: C#Cc1cccc(Nc2ncnc3cc(OC)c(OCCCCCCC(=O)NO)cc23)c1 [CUDC-101] + CC(=O)c1c(C)c2cnc(Nc3ccc(N4CCNCC4)cn3)nc2n(C2CCCC2)c1=O [Palbociclib] (partner 0.5 µM)
Method in brief: as §1

NVP-TAE684 + Alpelisib = compound: COc1cc(N2CCC(N3CCN(C)CC3)CC2)ccc1Nc1ncc(Cl)c(Nc2ccccc2S(=O)(=O)C(C)C)n1 [NVP-TAE684] + Cc1nc(NC(=O)N2CCC[C@H]2C(N)=O)sc1-c1ccnc(C(C)(C)C(F)(F)F)c1 [Alpelisib] (partner 2 µM)
Method in brief: as §1

Cell Line	relative viability ([1]; first compound 0.005 µM)	relative viability ([1]; first compound 0.01581 µM)	relative viability ([1]; first compound 0.05 µM)	relative viability ([1]; first compound 0.1581 µM)	relative viability ([1]; first compound 0.5 µM)	relative viability ([2]; first compound 0.005 µM)	relative viability ([2]; first compound 0.01581 µM)	relative viability ([2]; first compound 0.05 µM)	relative viability ([2]; first compound 0.1581 µM)	relative viability ([2]; first compound 0.5 µM)	relative viability (CUDC-101 + Palbociclib; first compound 0.01 µM)	relative viability (CUDC-101 + Palbociclib; first compound 0.03162 µM)	relative viability (CUDC-101 + Palbociclib; first compound 0.1 µM)	relative viability (CUDC-101 + Palbociclib; first compound 0.3162 µM)	relative viability (CUDC-101 + Palbociclib; first compound 1 µM)	relative viability (NVP-TAE684 + Alpelisib; first compound 0.2 µM)	relative viability (NVP-TAE684 + Alpelisib; first compound 0.6325 µM)	relative viability (NVP-TAE684 + Alpelisib; first compound 2 µM)
NCI-H2126	0.577	0.73	0.652	0.69	0.726	0.603	0.543	0.573	0.584	0.49	0.355	0.346	0.337	0.364	0.352	0.756	0.811	0.65
NCI-H520	0.528	0.652	0.784	0.834	0.818	0.231	0.158	0.188	0.324	0.18	0.227	0.199	0.277	0.32	0.225	1.17	1.16	0.354
NCI-H1755	0.456	0.466	0.413	0.441	0.424	0.365	0.397	0.404	0.456	0.384	0.431	0.472	0.507	0.469	0.435	0.692	1	0.771
NCI-H358	0.265	0.173	0.169	0.165	0.188	0.177	0.155	0.162	0.178	0.245	0.148	0.152	0.141	0.137	0.119	0.751	0.478	0.203
NCI-H2228	0.302	0.324	0.305	0.379	0.259	0.295	0.491	0.442	0.514	0.423	0.891	1.09	0.874	0.805	0.664	0.381	0.255	0.153
NCI-H2347	0.405	0.515	0.471	0.409	0.461	0.359	0.814	0.261	0.347	0.307	0.469	0.431	0.429	0.435	0.418	1.14	1.07	0.906
HCC-15	0.215	0.23	0.223	0.228	0.227	0.569	0.578	0.564	0.703	0.508	0.737	0.74	0.793	0.818	0.648	0.865	0.933	0.678
NCI-H23	–	0.511	0.701	0.779	0.641	0.645	0.836	1.02	0.974	0.993	0.463	0.562	0.563	0.535	0.446	0.856	0.62	0.484
LC-2-ad	0.259	0.328	0.293	0.271	0.278	0.542	0.398	0.55	0.525	0.396	0.501	0.553	0.477	0.482	0.451	0.813	0.801	0.232
LCLC-97TM1	0.196	0.185	0.181	0.172	0.198	0.735	0.923	1.03	0.99	0.792	0.203	0.228	0.252	0.173	0.164	0.194	0.233	0.127
HOP-62	0.344	0.337	0.33	0.345	0.351	0.496	0.59	0.685	0.807	0.565	0.448	0.38	0.478	0.421	0.425	1.16	0.891	0.946
NCI-H2085	0.763	0.785	0.843	0.851	0.89	0.277	0.216	0.236	0.237	0.219	0.438	0.468	0.47	0.463	0.466	0.934	0.897	0.712
NCI-H2087	0.616	0.661	0.634	0.645	0.645	0.72	0.927	0.81	1.09	0.651	0.284	0.21	0.238	0.264	0.168	1.07	1.04	1.01
NCI-H1395	0.71	–	0.949	1.13	0.952	0.353	0.398	0.408	0.411	0.396	0.599	0.632	0.595	0.725	0.578	1.2	1.19	0.739
COR-L 105	0.839	1.24	1.03	1.03	1.02	0.344	0.297	0.34	0.303	0.29	0.383	0.404	0.408	0.427	0.294	0.852	0.926	0.538
CAL-12T	0.575	1.19	1.11	1.43	0.88	0.236	0.308	0.341	0.508	0.242	0.81	0.448	0.333	0.412	0.34	1.24	1.38	0.535
A-427	0.874	0.94	0.995	1.1	0.975	0.66	0.743	0.764	0.688	0.822	0.562	0.538	0.501	0.496	0.487	1.12	–	0.899
